Experimental data taken from patent US20240158348A1, “HERBICIDAL CYCLIC AMIDES N-SUBSTITUTED WITH A HALOALKYLSULFONYLANILIDE GROUP” (FMC Corporation, priority 2021, published 2024).

Columns and labels:
Format in all cases: in vivo
[1] = tested on: ryegrass, Italian (Italian ryegrass, Lolium multiflorum); experiment: Test A postemergence, Italian ryegrass; conditions: post-emergence, 240 h, 0 to 100 scale, 10 days, read-out: Plant response rating, Ryegrass, Italian; for pest or weed control at 31 g/ha: 31 g ai/ha; for pest or weed control at 125 g/ha: 125 g ai/ha
Source text: (§1) Seeds of plant species selected from barnyardgrass (Echinochloa crus-galli), blackgrass (Alopecurus myosuroides), corn (Zea mays), foxtail, giant (giant foxtail, Setaria faberi), goosegrass (Eleusine indica), kochia (Bassia scoparia), oat, wild (wild oat, Avena fatua), pigweed, palmer (palmer amaranth, Amaranthus palmeri), pigweed, redroot (redroot pigweed, Amaranthus retroflexus), ragweed (common ragweed, Ambrosia artemisiifolia), ryegrass, Italian (Italian ryegrass, Lolium multiflorum), soybean (Glycine max), and wheat (Triticum aestivum) were planted into a blend of loam soil and sand and treated preemergence with a directed soil spray using test chemicals formulated in a non-phytotoxic solvent mixture which included a surfactant.
(§2) At the same time, plants selected from these crop and weed species and also galium (catchweed bedstraw, Galium aparine) and horseweed (Erigeron canadensis) were planted in pots containing the same blend of loam soil and sand and treated with postemergence applications of test chemicals formulated in the same manner. Plants ranged in height from 2 to 10 cm and were in the one- to two-leaf stage for the postemergence treatment. Treated plants and untreated controls were maintained in a greenhouse for 10 days, after which time all treated plants were compared to untreated controls and visually evaluated for injury. Plant response ratings, summarized in Table A, are based on a 0 to 100 scale where 0 is no effect and 100 is complete control. A dash (-) response means no test result.

corn (Zea mays) [2] = experiment: Test A postemergence, corn; conditions: post-emergence, 240 h, 0 to 100 scale, 10 days; for Corn plant response rating (crop injury, 0 = no effect, 100 = complete kill) at 31 g/ha: 31 g ai/ha; for Corn plant response rating (crop injury, 0 = no effect, 100 = complete kill) at 125 g/ha: 125 g ai/ha
Source text: as §1, §2

[3] = tested on: wheat (Triticum aestivum); experiment: Test A preemergence, wheat; conditions: 0 to 100 scale, 10 days
Source text: as §1, §2

[4] = tested on: goosegrass (Eleusine indica); experiment: Test A preemergence, goosegrass; conditions: 0 to 100 scale, 10 days
Source text: as §1, §2

corn (Zea mays) [5] = experiment: Test A preemergence, corn; conditions: 0 to 100 scale, 10 days
Source text: as §1, §2

[6] = tested on: blackgrass (Alopecurus myosuroides); experiment: Test A preemergence, blackgrass; conditions: 0 to 100 scale, 10 days
Source text: as §1, §2

[7] = tested on: goosegrass (Eleusine indica); experiment: Test A postemergence, goosegrass; conditions: 0 to 100 scale, 10 days
Source text: as §1, §2

[8] = tested on: blackgrass (Alopecurus myosuroides); experiment: Test C postemergence, blackgrass; conditions: 125 g ai/ha Postemergence; 0 is no effect, 100 is complete control
[9] = tested on: goosegrass (Eleusine indica); experiment: Test C postemergence, goosegrass
Outline: (§3)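 Herbicidal effect was estimated visually on a 0–100 scale 10 or 12 days after spraying. Formulation: non-phytotoxic solvent mixture with surfactant. Timing: directed soil spray after sowing, or postemergence on seedlings bearing one or two leaves.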

soybean (Glycine max) = experiment: Test C preemergence, soybean; conditions: 0 is no effect, 100 is complete control
Outline: as §3

| Compound | pest or weed control at 31 g/ha [1] [%] | pest or weed control at 125 g/ha [1] [%] | Corn plant response rating (crop injury, 0 = no effect, 100 = complete kill) at 31 g/ha (corn (Zea mays) [2]) [%] | Corn plant response rating (crop injury, 0 = no effect, 100 = complete kill) at 125 g/ha (corn (Zea mays) [2]) [%] | Plant response rating, Wheat ([3]; 31 g ai/ha) | Plant response rating, Wheat ([3]; 125 g ai/ha) | Plant response rating, Goosegrass ([4]; 31 g ai/ha) | Plant response rating, Goosegrass ([4]; 125 g ai/ha) | Plant response rating, Corn (corn (Zea mays) [5]; 31 g ai/ha) | Plant response rating, Corn (corn (Zea mays) [5]; 125 g ai/ha) | Plant response rating, Blackgrass ([6]; 31 g ai/ha) | Plant response rating, Blackgrass ([6]; 125 g ai/ha) | Plant response rating, Goosegrass ([7]; 31 g ai/ha) | Plant response rating, Goosegrass ([7]; 125 g ai/ha) | Plant response rating (0 to 100 scale), Blackgrass [8] | Goosegrass plant response rating ([9]; 31 g ai/ha Postemergence, visual injury, 0 to 100 scale (0 no effect, 100 complete control)) | Plant response rating (0 to 100 scale), Goosegrass ([9]; 125 g ai/ha Postemergence, 0 is no effect, 100 is complete control) | Plant response rating (0 to 100 scale), Soybean (soybean (Glycine max); 31 g ai/ha Preemergence) | Plant response rating (0 to 100 scale), Soybean (soybean (Glycine max); 125 g ai/ha Preemergence) |
| --- | --- | --- | --- | --- | --- | --- | --- | --- | --- | --- | --- | --- | --- | --- | --- | --- | --- | --- | --- |
| C#CCOC1CCN(c2cc(NS(=O)(=O)C(F)(F)F)c(C)cc2C)C1=O (stereo not shown) [Compound 1, N-[2,4-dimethyl-5-[2-oxo-3-(2-propyn-1-yloxy)-1-pyrrolidinyl]phenyl]-1,1,1-trifluoromethanesulfonamide] | 70 | 70 | 50 | 90 | – | – | – | – | – | – | – | – | – | – | – | – | – | – | – |
| C=CCOC1CCN(c2cc(NS(=O)(=O)C(F)(F)F)c(C)cc2C)C1=O (stereo not shown) [Compound 2, N-[2,4-dimethyl-5-[2-oxo-3-(2-propen-1-yloxy)-1-pyrrolidinyl]phenyl]-1,1,1-trifluoromethanesulfonamide] | 70 | 70 | 0 | 90 | – | – | – | – | – | – | – | – | – | – | – | – | – | – | – |
| Cc1cc(C)c(N2CCC(OC3CC3)C2=O)cc1NS(=O)(=O)C(F)(F)F (stereo not shown) [Compound 3, N-[5-[3-(cyclopropyloxy)-2-oxo-1-pyrrolidinyl]-2,4-dimethylphenyl]-1,1,1-trifluoromethanesulfonamide] | 90 | 90 | 90 | 90 | 100 | 100 | 70 | 100 | 90 | 90 | 80 | 100 | 80 | 90 | – | – | – | – | – |
| Cc1cc(C)c(N2CCC(OC3CCC3)C2=O)cc1NS(=O)(=O)C(F)(F)F (stereo not shown) [Compound 4, N-[5-[3-(cyclobutyloxy)-2-oxo-1-pyrrolidinyl]-2,4-dimethylphenyl]-1,1,1-trifluoromethanesulfonamide] | 80 | 80 | 90 | 0 | 70 | 100 | 100 | 100 | 40 | 90 | 20 | 90 | 70 | 90 | – | – | – | – | – |
| Cc1cc(C)c(N(COC(=O)C(C)(C)C)S(=O)(=O)C(F)(F)F)cc1N1CCC(OC2CCCC2)C1=O (stereo not shown) [Compound 5, [[5-[3-(cyclopentyloxy)-2-oxo-1-pyrrolidinyl]-2,4-dimethylphenyl][(trifluoromethyl)sulfonyl]amino]methyl 2,2-dimethylpropanoate] | 20 | 40 | 0 | 80 | 0 | 20 | 10 | 90 | 0 | 20 | 0 | 40 | 50 | 90 | – | – | – | – | – |
| Cc1cc(C)c(N2CCC(OC3CCCC3)C2=O)cc1NS(=O)(=O)C(F)(F)F (stereo not shown) [Compound 6, N-[5-[3-(cyclopentyloxy)-2-oxo-1-pyrrolidinyl]-2,4-dimethylphenyl]-1,1,1-trifluoromethanesulfonamide] | 0 | 50 | 0 | 90 | 80 | 100 | 90 | 100 | 30 | 80 | 50 | 90 | 80 | 90 | – | – | – | – | – |
| Cc1cc(C)c(N(COC(=O)C(C)(C)C)S(=O)(=O)C(F)(F)F)cc1N1CCC(OC2CC2)C1=O (stereo not shown) [Compound 7, [[5-[3-(cyclopropyloxy)-2-oxo-1-pyrrolidinyl]-2,4-dimethylphenyl][(trifluoromethyl)sulfonyl]amino]methyl 2,2-dimethylpropanoate] | 50 | 90 | 90 | 90 | 0 | 80 | 80 | 100 | 0 | 50 | 30 | 80 | 90 | 90 | – | – | – | – | – |
| Cc1cc(C)c(N(COC(=O)C(C)(C)C)S(=O)(=O)C(F)(F)F)cc1N1CCC(OC2CCC2)C1=O (stereo not shown) [Compound 8, [[5-[3-(cyclobutyloxy)-2-oxo-1-pyrrolidinyl]-2,4-dimethylphenyl][(trifluoromethyl)sulfonyl]amino]methyl 2,2-dimethylpropanoate] | 40 | 100 | 30 | 80 | 0 | 50 | 70 | 100 | 0 | 10 | 30 | 70 | 80 | 90 | – | – | – | – | – |
| COC(=O)N(c1cc(N2CCC(OC3CC3)C2=O)c(C)cc1Cl)S(=O)(=O)C(F)(F)F (stereo not shown) [Compound 40] | – | – | – | – | – | – | – | – | – | – | – | – | – | – | 60 | 50 | 90 | 70 | 90 |
